This data set in a line: in vitro. The note with it: human, hela cells, % viability.

As for `COC(=O)[C@H]1CN(C(=O)c2ccncc2)C[C@@H]1c1ccc(F)cc1` [CBK283509], the viability at 28.5 h, 10 µM is 94.2%.
The same measure, in the same setting: the value for `Oc1ccccc1CNC1(Cc2cc(-c3ccc(F)cc3)on2)COC1` [CBK289655] was 95.8%; that for `CCc1cc2c(=O)c(-c3nc(C)cs3)c(CCCC(=O)O)oc2cc1O` [CBK264834] was 101%; that for `CN(C)c1cccc(C(=O)Nc2cnc(-c3cccc(C(F)(F)F)c3)c(-c3cccnc3)n2)c1` [CBK036752] was 90.4%.
The same measure, in the same setting: the value for `c1ccc(-c2nc3ccc(Cc4ccc5nc(-c6ccccn6)c(-c6ccccn6)nc5c4)cc3nc2-c2ccccn2)nc1` [CBK261975] was 101%.
On the same count and under the same terms, under `O=C(O)c1ccc(NCc2ccccc2OCc2ccc(F)cc2)cc1` [CBK266487] stands 101%; under `CC1CCN(CC[C@H]2CCCN2S(=O)(=O)c2cccc(O)c2)CC1` [CBK074118C], 112%.
On to `Cc1ccc(-n2ncc3c(=O)n(CC(=O)N4CCCCC4)cnc32)cc1` [CBK287532], for which the viability at 28.5 h, 10 µM is 101%.
With `CCCCN(C)c1nccnc1-c1cccnc1` [CBK037631], the viability at 28.5 h, 10 µM is 99.2%.
The same measure, in the same setting: the value for `COC(=O)c1ccc2oc(-c3cc(C(O)CNC(C)(C)C)ccc3OC(C)C)cc(=O)c2c1` (stereo not shown) [CBK009944C] was 85%.
Same read-out and setting: the value for `CC1(C)CCCN1C1=NC(=O)C(c2ccccc2)O1` (stereo not shown) [CBK023070] was 104%; that for `CCOC(=O)Cc1csc(SC(C)C(=O)N2CCNC2=O)n1` (stereo not shown) [CBK304551] was 106%; that for `CN1[C@@H](CCC(=O)N2CCN(c3ccccn3)CC2)CNC(=O)[C@H]2NCC[C@H]21` [CBK289031] was 95.2%.
On to `COc1ccc(S(=O)(=O)Nc2ccccc2C(=O)O)cc1C(=O)O` [CBK264084], for which the viability at 28.5 h, 10 µM worked out at 99.9%.
Same read-out and setting: under `Cn1c(=O)oc2cc(S(=O)(=O)NCCC(=O)O)ccc21` [CBK267567] stands 89.3%.
Still for that read-out and setting: the value for `Cc1csc(C(Cc2cccs2)NCC2CCOC2)n1` (stereo not shown) [CBK285051] was 110%; that for `Cc1c(C(=O)N2CC(n3cc(C(C)O)nn3)C2)sc2ccc(F)cc12` (stereo not shown) [CBK305446] was 94.5%.
The same measure, in the same setting: the value for `COc1ccnc(N2C[C@@H]3OCC(=O)N(Cc4ccccc4)[C@@H]3C2)n1` [CBK289666] was 91%.
For the compound `Nc1ncnc2c1ncn2[C@@H]1O[C@H](CO)[C@H](O)C1O` (stereo partly shown) [CBK201199], the viability at 28.5 h, 10 µM (bulk resorufin, single well) turned out to be 95.8%.
Consider `CC(=O)N1CCc2c([nH]c3ccccc23)[C@@]12CCN(Cc1ccc(F)cc1)C2` [CBK074955], for which the viability at 28.5 h, 10 µM was found to be 83%.
On to `Cc1sc2nc(C(C)Nc3ccc4[nH]c(=O)[nH]c4c3)[nH]c(=O)c2c1C` (stereo not shown) [CBK297915], for which the viability at 28.5 h, 10 µM came to 80.6%.
The same measure, in the same setting: under `CCCn1nnc(NC(=O)COc2ccc3ccccc3c2)n1` [CBK265923] stands 101%.
Still for that read-out and setting: under `O=S(=O)(c1ccc(-c2csc(-c3ccccc3)n2)cc1)N1CCCCCC1` [CBK265504] stands 84.9%; under `O=C(N1CCCC1)N1CCN(c2cncc(-c3ccc(O)cc3)n2)CC1` [CBK126947T], 93.5%; under `Cc1cccnc1Nc1ccc(C2CCCCN2Cc2ccc3nccnc3c2)cn1` (stereo not shown) [CBK286133], 89.8%.
Same read-out and setting: the value for `Cc1ccc(-c2cc(CC3(C(=O)N(C)C)CCCN(C)C3)on2)cc1` (stereo not shown) [CBK281695] was 89.3%.
Consider `CC(=O)Nc1ccc(S(=O)(=O)N2CCC3(CC2)NC(=O)c2cc(-c4ccoc4)ccc2O3)cc1` [CBK115856], for which the viability at 28.5 h, 10 µM amounted to 113%.
The same measure, in the same setting: the value for `C/C(=N/NC(=O)C[N+](C)(C)C)c1nn(-c2ccc(Cl)cc2)nc1C` [CBK008258C] was 100%; that for `Cn1c(=O)n(CC(=O)O)c(=O)c2c1nc(Br)n2Cc1ccccc1` [CBK026617] was 94.8%.
On the same count and under the same terms, under `Cc1ccnc2nc(C(=O)OC(C)C(=O)N3CCCC3)nn12` (stereo not shown) [CBK306089] stands 88.9%; under `CC1CCc2c(sc3ncnc(SCC(=O)N(C)C)c23)C1` (stereo not shown) [CBK305946], 92.9%; under `Cc1occc1-c1nnc(SC2CCCCN(C(=O)c3ccc(Cl)cc3)C2=O)n1C` (stereo not shown) [CBK296990], 97.9%.
The same measure, in the same setting: under `Cn1c(CN2CCN(C3CCCCC3)C(=O)C2)nc2ccccc21` [CBK281893] stands 90.9%; under `CS(=O)(=O)N1CCCc2cc(-c3csc(N)n3)ccc21` [CBK305859], 86.4%.
As for `N#CCCn1cc(C(N)=O)c(-c2cc3ccccc3o2)n1` [CBK306204], the viability at 28.5 h, 10 µM was found to be 92.9%.
On to `O=C(Nc1ccccc1O)c1cc(S(=O)(=O)N2CCCCCC2)ccc1Cl` [CBK264554], for which the viability at 28.5 h, 10 µM worked out at 89.1%.
Same read-out and setting: the value for `CCn1cc(S(=O)(=O)NC2(c3ccccc3)CCCC2)cn1` [CBK282767] was 90.6%; that for `Cc1ccc(S(=O)(=O)NC(C)(C)CSc2nncn2C)cc1` [CBK266366] was 104%; that for `COc1ccccc1OCC(O)CN1CCN(C(=O)c2ccccc2)CC1` (stereo not shown) [CBK074386C] was 111%.
The same measure, in the same setting: under `CN(C)c1ccc(C2C(C(=O)c3ccccc3)=C(O)C(=O)N2CCCC(=O)O)cc1` (stereo not shown) [CBK263393] stands 96.4%; under `Brc1n[nH]c2nc(NCc3ccco3)ncc12` [CBK022327], 91.6%; under `O=C(NC(=S)Nc1ccc(OCc2ccccc2)cc1)c1cccnc1` [CBK266224], 97.8%.
On the same count and under the same terms, under `Nc1n[nH]c(=O)c2c1ncn2[C@H]1C[C@@H](O)[C@@H](CO)O1` [CBK201169] stands 93.7%; under `Cc1cnc(NC(=O)Cc2ccc(F)cc2)s1` [CBK288249], 99.9%; under `Cc1ncccc1COC(=O)Nc1cnc2ccccc2c1` [CBK200128], 95.9%.
`CCc1ccc(/C=N/N2CCN(Cc3cccc4ccccc34)CC2)cc1` [CBK262986]: the viability at 28.5 h, 10 µM turned out to be 104%.
The same measure, in the same setting: the value for `CCn1nnc(C2=CCCN(C)C2)n1` [CBK034628E] was 104%; that for `NC(=O)c1cccc(CN2CCOC3(CCN(C(=O)OCc4ccccc4)CC3)C2)c1` [CBK161100T] was 90.4%.
On the same count and under the same terms, the value for `COc1ccc(S(=O)(=O)Nc2nccnc2-c2ccc(CN3C(=O)CCC3=O)cc2)cc1` [CBK050699] was 110%.
The same measure, in the same setting: the value for `CC(=O)NC(CC(=O)NCc1cccnc1-n1cncn1)c1ccc(Cl)cc1` (stereo not shown) [CBK298314] was 101%; that for `CC(Cc1c[nH]c2ccccc12)NC(=N)NC(=N)N` (stereo not shown) [CBK268251C] was 91.7%; that for `CC(C#CCN(C)C)N1C(=O)CCC1C` (stereo not shown) [CBK008291G] was 109%.
On to `COc1ccc(CN2CCCN(C(=O)c3ccc(F)cc3Br)CC2)cc1` [CBK251752], for which the viability at 28.5 h, 10 µM was determined as 88.1%.
Take `Nc1c(C(=O)NCC2CCCO2)c2nc3ccccc3nc2n1C1CCCC1` (stereo not shown) [CBK269217]: the viability at 28.5 h, 10 µM worked out at 112%.
On the same count and under the same terms, under `COc1ccccc1CNC(=O)CCn1ccc2ccncc21` [CBK282229] stands 91.9%; under `O=C(NC(C(=O)N/N=C/c1ccc(O)cc1)c1n[nH]c(=O)c2ccccc12)c1ccccc1` (stereo not shown) [CBK262839], 116%.
As for `CC(CNC(=O)c1cccn(CC(=O)Nc2ccc(F)cc2)c1=O)N1CCCCCC1` (stereo not shown) [CBK286123], the viability at 28.5 h, 10 µM was 97.5%.
On the same count and under the same terms, the value for `N#C/C(=C\c1ccc(O)cc1)c1nc(-c2ccc3c(c2)OCO3)cs1` [CBK262370] was 96.8%; that for `Cc1cccn2c(=O)cc(CN3CCC(c4ccn[nH]4)CC3)nc12` [CBK305951] was 93.2%; that for `Cc1c(C(=O)N(C)Cc2csc(Br)c2)nnn1C1CCNCC1` [CBK304491] was 104%.
Same read-out and setting: under `CC(=O)N1CC[C@H](c2nc3cccc(C(N)=O)c3[nH]2)C1` [CBK289415] stands 98.3%.
On the same count and under the same terms, under `Cc1nccn1CCNC(=O)c1ccccc1Cn1cccn1` [CBK281979] stands 101%.
Take `Cc1ccc(S(=O)(=O)Cc2cccc(C(=O)N3CCN(Cc4ccccc4)CC3)c2)cc1` [CBK269596]: the viability at 28.5 h, 10 µM came to 93%.
On the same count and under the same terms, under `O=C(O)c1ccc(S(=O)(=O)NC2CCS(=O)(=O)C2)cc1` (stereo not shown) [CBK262477] stands 110%; under `CCCCCNC(=O)N1CCN(CC(=O)OCC)CC1` [CBK044786], 96.6%.
Consider `O=[N+]([O-])c1ccc(CN2CCN(c3nccnc3OCc3ccc(Cl)c(Cl)c3)CC2)cc1` [CBK083076T], for which the viability at 28.5 h, 10 µM was found to be 101%.
On the same count and under the same terms, the value for `OC1(c2cccnc2)C2CCCC1CN(Cc1ccc(F)cc1)C2` (stereo not shown) [CBK285204] was 89.8%.
The same measure, in the same setting: the value for `CN1C[C@@H](C(=O)N2CCCCCC2)[C@@]2(CCc3ccccc3C2=O)C1` [CBK284590] was 87%; that for `O=C(Nc1ccc(Cl)c(Cl)c1)c1cnc2n(c1=O)CCS2` [CBK287381] was 108%; that for `CC1(CNC(=O)c2cc(-c3cccc(F)c3)no2)COC1` [CBK281751] was 87.7%.
Take `COc1ccccc1-c1cc2nc(C)cc(Nc3ccccc3)n2n1` [CBK287806]: the viability at 28.5 h, 10 µM is 97.3%.
Same read-out and setting: under `NC(=O)C(NCc1ccccc1)c1ccc(Cl)cc1` (stereo not shown) [CBK012748] stands 84%.
The same measure, in the same setting: the value for `O=C(OCCc1ccncc1)N1CCC(F)(F)CC1` [CBK200158] was 105%; that for `Cc1c(C(=O)N2CCC(C(=O)c3cccnc3)CC2)oc2ccccc12` [CBK283954] was 88.9%; that for `Cc1csc2c(C3CCN(C(=O)c4cnn(C)c4)CC3)nc(C)n12` [CBK285250] was 89.7%.
Still for that read-out and setting: the value for `COc1ccc(C2(C(=O)NCc3c(F)cccc3F)CC2)cc1` [CBK149826] was 108%; that for `Nc1c(-c2ccc3c(c2)CCO3)cnc2ncccc12` [CBK083678] was 96%; that for `O=C(COc1ccc(S(=O)(=O)N2CCOCC2)cc1)NCc1ccccc1` [CBK268533] was 98.6%.
On to `CC(=O)c1ccc(NC(=O)N2Cc3nc[nH]c3C[C@H]2c2nc(-c3ccc(F)cc3)no2)cc1` [CBK288971], for which the viability at 28.5 h, 10 µM was determined as 83.6%.

What is called viability is a read-out of living cells in per cent, often relative to untreated cells.

The values above are taken from PMC12040169 (PLOS Biology, 2025).
